Measurements taken from patent US20240166652A1, “MODULATORS OF THE INTEGRATED STRESS PATHWAY” (Calico Life Sciences LLC, priority 2017, published 2024).

Test system: ATF4 luciferase reporter in HEK293T cells
Test: ATF4-Luc assay (ATF4 luciferase reporter, tunicamycin-treated HEK293T cells)
Assay type: cell-based, human
Conditions: Homo sapiens, HEK-293T; HEK293T cells carrying the ATF4 luciferase reporter, 1 μg/mL tunicamycin, 7 hours

| Compound | EC50 |
| --- | --- |
| O=C(COc1ccc(Cl)c(F)c1)NC12CC(NC(=O)COc3ccccc3F)(C1)C2 [Compound 411, 2-(4-chloro-3-fluorophenoxy)-N-{3-[2-(2-fluorophenoxy)acetamido]bicyclo[1.1.1]pentan-1-yl}acetamide] | 10 to 50 nM |
| O=C(/C=C/c1ccc(C(F)(F)F)cc1)NC12CC(NC(=O)COc3ccc(Cl)c(F)c3)(C1)C2 [Compound 346, (2E)-N-{3-[2-(4-chloro-3-fluorophenoxy)acetamido]bicyclo[1.1.1]pentan-1-yl}-3-[4-(trifluoromethyl)phenyl]prop-2-enamide] | 50 to 250 nM |
| O=C(COc1ccc(Cl)c(F)c1)NC12CCC(NC(=O)Cc3ccc(C(F)(F)F)cc3)(CC1)C(O)C2 (stereo not shown) [Compound 322, 2-(4-chloro-3-fluorophenoxy)-N-(3-hydroxy-4-{2-[4-(trifluoromethyl)phenyl]acetamido}bicyclo[2.2.2]octan-1-yl)acetamide] | 50 to 250 nM |
| O=C(COc1ccc(C(F)(F)F)nc1)NC12CCC(NC(=O)COc3ccc(C(F)(F)F)nc3)(CC1)[C@@H](O)C2 [Compound 541, N,N′-[(2S)-2-hydroxybicyclo[2.2.2]octane-1,4-diyl]bis(2-{[6-(trifluoromethyl)pyridin-3-yl]oxy}acetamide)] | 10 to 50 nM |
| CC(O)c1ccc(OCC(=O)NC23CC(NC(=O)COc4ccc(Cl)c(F)c4)(C2)C3)cn1 (stereo not shown) [Compound 263, 2-(4-chloro-3-fluorophenoxy)-N-[3-(2-{[6-(1-hydroxyethyl)pyridin-3-yl]oxy}acetamido)bicyclo[1.1.1]pentan-1-yl]acetamide] | 500 to 2000 nM |
| O=C(COc1ccc(OC(F)(F)F)cc1)NC12CCC(NC(=O)COc3ccc(F)cc3)(CC1)[C@@H](O)C2 [Compound 781, 2-(4-fluorophenoxy)-N-[(2S)-2-hydroxy-4-{2-[4-(trifluoromethoxy)phenoxy]acetamido}bicyclo[2.2.2]octan-1-yl]acetamide] | < 10 nM |
| Cc1ccc(OCC(=O)NC23CCC(NC(=O)COc4ccc(Cl)c(F)c4)(CC2)[C@@H](O)C3)cc1 [Compound 475, 2-(4-chloro-3-fluorophenoxy)-N-{(2S)-2-hydroxy-4-[2-(4-methylphenoxy)acetamido]bicyclo[2.2.2]octan-1-yl}acetamide] | < 10 nM |
| O=C(COc1ccc(C(F)(F)F)cc1)NC12CCC(NC(=O)COc3ccc(C(F)(F)F)cc3)(CC1)[C@@H](O)C2 [Compound 536, N,N′-[(2S)-2-hydroxybicyclo[2.2.2]octane-1,4-diyl]bis{2-[4-(trifluoromethyl)phenoxy]acetamide}] | < 10 nM |
| CO[C@@H]1C[C@]2(NC(=O)COc3ccc(Cl)c(F)c3)CC[C@@]1(NC(=O)COc1ccc(Cl)c(F)c1)CC2=O (racemic) [Compound 556, rac-N,N′-[(1R,2R,4R)-2-methoxy-5-oxobicyclo[2.2.2]octane-1,4-diyl]bis[2-(4-chloro-3-fluorophenoxy)acetamide]] | 10 to 50 nM |
| O=C(COc1ccc(OC(F)(F)F)cc1)NC12CCC(NC(=O)COc3ccc4c(c3)OC(F)(F)O4)(CC1)[C@@H](O)C2 [Compound 780, 2-[(2,2-difluoro-2H-1,3-benzodioxol-5-yl)oxy]-N-[(2S)-2-hydroxy-4-{2-[4-(trifluoromethoxy)phenoxy]acetamido}bicyclo[2.2.2]octan-1-yl]acetamide] | < 10 nM |
| O=C(COc1ccc(Cl)c(F)c1)NC12CCC(NC(=O)COc3ccc4c(c3)OC(F)(F)O4)(C1)C2 [Compound 380, 2-(4-chloro-3-fluorophenoxy)-N-(4-{2-[(2,2-difluoro-2H-1,3-benzodioxol-5-yl)oxy]acetamido}bicyclo[2.1.1]hexan-1-yl)acetamide] | 10 to 50 nM |
| Cc1ccc(OCC(=O)NC23CCC(NC(=O)COc4ccc(Cl)cc4)(CC2)[C@@H](O)C3)cc1F [Compound 732, 2-(4-chlorophenoxy)-N-{(2S)-4-[2-(3-fluoro-4-methylphenoxy)acetamido]-2-hydroxybicyclo[2.2.2]octan-1-yl}acetamide] | < 10 nM |
| O=C(COc1ccc(Cl)c(F)c1)NC12CC(NC(=O)Nc3ccc(Cl)cc3)(C1)C2 [Compound 431, 2-(4-chloro-3-fluorophenoxy)-N-(3-{[(4-chlorophenyl)carbamoyl]amino}bicyclo[1.1.1]pentan-1-yl)acetamide] | 50 to 250 nM |
| CN(C(=O)COc1ccc(Cl)c(Cl)c1)C12CC(NC(=O)COc3ccc(Cl)c(Cl)c3)(C1)C2 [Compound 198, 2-(3,4-dichlorophenoxy)-N-{3-[2-(3,4-dichlorophenoxy)acetamido]-bicyclo[1.1.1]pentan-1-yl}-N-methylacetamide] | 50 to 250 nM |
| O=C(COc1ccc(Cl)c(F)c1)NC12CCC(NC(=O)COc3ccc(Cl)c(F)c3)(CC1)[C@H](C(=O)O)C2 [Compound 559, (2R)-1,4-bis[2-(4-chloro-3-fluorophenoxy)acetamido]bicyclo[2.2.2]octane-2-carboxylic Acid] | 500 to 2000 nM |
| O=C(COc1ccc(Cl)c(F)c1)NC12CCC(NC(=O)COc3ccc(Cl)c(F)c3)(CC1)C(O)(CO)C2 (stereo not shown) [Compound 644, N,N′-[2-hydroxy-2-(hydroxymethyl)bicyclo[2.2.2]octane-1,4-diyl]bis[2-(4-chloro-3-fluorophenoxy)acetamide]] | < 10 nM |

| Compound | EC50 |
| --- | --- |
| O=C(COc1ccc(Cl)c(F)c1)NC12CCC(NC(=O)COc3ccnc(C(F)(F)F)c3)(CC1)[C@@H](O)C2 (single isomer, unassigned) [Compound 319] | < 10 nM |
| Cc1ccc(OCC(=O)NC23CCC(NC(=O)COc4ccc(Cl)cc4)(CC2)[C@@H](O)C3)cc1 [Compound 787, 2-(4-chlorophenoxy)-N-{(2S)-2-hydroxy-4-[2-(4-methylphenoxy)acetamido]bicyclo[2.2.2]octan-1-yl}acetamide] | < 10 nM |
| CS(=O)(=O)c1cc(OCC(=O)NC23CCC(NC(=O)COc4ccc(F)cc4)(CC2)[C@@H](O)C3)ccc1F [Compound 819, 2-[4-fluoro-3-(methanesulfonyl)phenoxy]-N-{(3S)-4-[2-(4-fluorophenoxy)acetamido]-3-hydroxybicyclo[2.2.2]octan-1-yl}acetamide] | 500 to 2000 nM |
| O=C(COc1ccc(F)c(Cl)c1)NC12CCC(NC(=O)COc3ccc(Cl)c(Cl)c3)(CC1)[C@@H](O)C2 [Compound 544, 2-(3-chloro-4-fluorophenoxy)-N-{(3S)-4-[2-(3,4-dichlorophenoxy)acetamido]-3-hydroxybicyclo[2.2.2]octan-1-yl}acetamide] | < 10 nM |
| Cc1cnc(OCC(=O)NC23CCC(NC(=O)COc4ccc(Cl)c(F)c4)(CC2)[C@@H](O)C3)s1 [Compound 575, 2-(4-chloro-3-fluorophenoxy)-N-[(2S)-2-hydroxy-4-{2-[(5-methyl-1,3-thiazol-2-yl)oxy]acetamido}bicyclo[2.2.2]octan-1-yl]acetamide] | > 2000 nM |
| O=C(COc1ccc(Cl)c(F)c1)NC12CC(NC(=O)CN(CCO)c3ccc(Cl)cc3)(C1)C2 [Compound 609, 2-(4-chloro-3-fluorophenoxy)-N-(3-{2-[(4-chlorophenyl)(2-hydroxyethyl)amino]acetamido}bicyclo[1.1.1]pentan-1-yl)acetamide] | > 2000 nM |
| CCc1ccc(OCC(=O)NC23CCC(NC(=O)COc4ccc(F)c(F)c4)(CC2)[C@@H](O)C3)cc1 [Compound 778, 2-(3,4-difluorophenoxy)-N-{(2S)-4-[2-(4-ethylphenoxy)acetamido]-2-hydroxybicyclo[2.2.2]octan-1-yl}acetamide] | 10 to 50 nM |
| O=C(COCc1cccc(Cl)c1)NC12CC(NC(=O)COc3ccc(Cl)c(F)c3)(C1)C2 [Compound 131, 2-(4-chloro-3-fluorophenoxy)-N-(3-{2-[(3-chlorophenyl)methoxy]acetamido}-bicyclo[1.1.1]pentan-1-yl)acetamide] | 10 to 50 nM |
| O=C(COc1ccc(Cl)c(F)c1)NC12CC(N(CCO)C(=O)COc3ccc(C(F)(F)F)nc3)(C1)C2 [Compound 191, N-{3-[2-(4-chloro-3-fluorophenoxy)acetamido]bicyclo[1.1.1]pentan-1-yl}-N-(2-hydroxyethyl)-2-{[6-(trifluoromethyl)pyridin-3-yl]oxy}acetamide] | 500 to 2000 nM |
| CS(=O)(=O)c1cc(F)ccc1OCC(=O)NC12CCC(NC(=O)COc3ccc(Cl)c(F)c3)(CC1)[C@@H](O)C2 [Compound 751, 2-(4-chloro-3-fluorophenoxy)-N-[(2S)-4-{2-[4-fluoro-2-(methanesulfonyl)phenoxy]acetamido}-2-hydroxybicyclo[2.2.2]octan-1-yl]acetamide] | > 2000 nM |
| O=C(COc1ccc(S(F)(F)(F)(F)F)cc1)NC12CC(NC(=O)COc3ccc(Cl)c(F)c3)(C1)C2 [Compound 219, 2-(4-chloro-3-fluorophenoxy)-N-(3-{2-[4-(pentafluoro-λ^6-sulfanyl)phenoxy]acetamido}bicyclo[1.1.1]pentan-1-yl)acetamide] | < 10 nM |
| Cc1cc(CC(=O)NC23CCC(NC(=O)COc4ccc(Cl)c(F)c4)(CC2)C(O)C3)on1 (stereo not shown) [Compound 423, 2-(4-chloro-3-fluorophenoxy)-N-{2-hydroxy-4-[2-(3-methyl-1,2-oxazol-5-yl)acetamido]bicyclo[2.2.2]octan-1-yl}acetamide] | > 2000 nM |
| CS(=O)(=O)c1ccc(OCC(=O)NC23CCC(NC(=O)COc4ccc5c(c4)OC(F)(F)O5)(CC2)[C@@H](O)C3)cc1F [Compound 766, 2-[(2,2-difluoro-2H-1,3-benzodioxol-5-yl)oxy]-N-[(2S)-4-{2-[3-fluoro-4-(methanesulfonyl)phenoxy]acetamido}-2-hydroxybicyclo[2.2.2]octan-1-yl]acetamide] | 50 to 250 nM |
| CC(=O)NC1CC2(NC(=O)COc3ccc(Cl)c(F)c3)CCC1(NC(=O)COc1ccc(Cl)c(F)c1)CC2 (stereo not shown) [Compound 358, N,N′-(2-acetamidobicyclo[2.2.2]octane-1,4-diyl)bis[2-(4-chloro-3-fluorophenoxy)acetamide]] | < 10 nM |
| O=C(COc1ccc(F)c(F)c1)NC12CCC(NC(=O)COc3ccc(F)c(OC(F)(F)F)c3)(CC1)[C@@H](O)C2 [Compound 812, 2-(3,4-difluorophenoxy)-N-[(3S)-4-{2-[4-fluoro-3-(trifluoromethoxy)phenoxy]acetamido}-3-hydroxybicyclo[2.2.2]octan-1-yl]acetamide] | < 10 nM |
